Test results as given in publication PMC9516332 (Frontiers in Oncology, 2022).
Like-named read-outs stand apart in the source and are kept apart here.

Columns and labels:
[1] = test system: 134 cancer cell lines; test: Cell viability assay (ATPlite, 72 hours), IC50 on cancer cell line panel
[2] = test system: AP-1060 (ETV6-NTRK3); test: Cell viability assay; conditions: read-out: IC50 in cell proliferation assay

Structure (SMILES): CC(C)(C)c1nc(-c2cccc(NS(=O)(=O)c3c(F)cccc3F)c2F)c(-c2ccnc(N)n2)s1 [dabrafenib]
- IC50 ([1]; Homo sapiens, MV4-11, read-out: IC50 in cell proliferation assay, MV4-11 cell line (FLT3 ITD)): 8020 nM
- IC50 ([1]; Homo sapiens, MeWo, read-out: IC50 in cell proliferation assay, MeWo cell line): 1020 nM
- IC50 ([1]; Homo sapiens, NCCIT, read-out: IC50 in cell proliferation assay, NCC-IT cell line): 1160 nM
- IC50 ([1]; Homo sapiens, NCI-H82, read-out: IC50 in cell proliferation assay, cell line NCI-H82): 1120 nM
- IC50 ([1]; Homo sapiens, NCI-H460, read-out: IC50 in cell proliferation assay, NCI-H460 cell line): 1150 nM
- IC50 ([1]; Homo sapiens, NCI-H661, read-out: IC50 in cell proliferation assay, NCI-H661 cell line): > 10000 nM
- IC50 ([1]; Homo sapiens, NCI-H716, read-out: IC50 in cell proliferation assay, cell line NCI-H716 (FGFR2-COL14A1)): 1170 nM
- IC50 ([1]; Homo sapiens, NCI-H1650, read-out: IC50 in cell proliferation assay, NCI-H1650 cell line (EGFR exon19del)): > 10000 nM
- IC50 ([1]; Homo sapiens, NCI-H1975, read-out: IC50 in cell proliferation assay, NCI-H1975 cell line (EGFR p.L858R + p.T790M)): 1420 nM
- IC50 ([1]; Homo sapiens, NCI-H2228, read-out: IC50 in cell proliferation assay, NCI-H2228 cell line (EML4-ALK)): 2200 nM
- IC50 ([1]; Homo sapiens, OVCAR-3, read-out: IC50 in cell proliferation assay, cell line OVCAR-3): 1040 nM
- IC50 ([1]; Homo sapiens, PFSK-1, read-out: IC50 in cell proliferation assay, cell line PFSK-1): > 10000 nM
- IC50 ([1]; Homo sapiens, RL95-2, read-out: IC50 in cell proliferation assay, cell line RL95-2 (EGFR p.A289V)): 2990 nM
- IC50 ([1]; Homo sapiens, RPMI-7951, read-out: IC50 in cell proliferation assay, cell line RPMI-7951 (BRAF p.V600E)): 43 nM
- IC50 ([1]; Homo sapiens, RS4-11, read-out: IC50 in cell proliferation assay, cell line RS4;11): 1210 nM
- IC50 ([1]; Homo sapiens, Rec1, read-out: IC50 in cell proliferation assay, cell line REC-1): 975 nM
- IC50 ([1]; Homo sapiens, SHP77, read-out: IC50 in cell proliferation assay, cell line SHP-77): > 10000 nM
- IC50 ([1]; Homo sapiens, SK-BR-3, read-out: IC50 in cell proliferation assay, cell line SK-BR-3 (ERBB2 amplification)): 1570 nM
- IC50 ([1]; Homo sapiens, SK-N-AS, read-out: IC50 in cell proliferation assay, cell line SK-N-AS): 3020 nM
- IC50 ([1]; Homo sapiens, SK-N-FI, read-out: IC50 in cell proliferation assay, cell line SK-N-FI): > 10000 nM
- IC50 ([1]; Homo sapiens, SK-N-MC, read-out: IC50 in cell proliferation assay, cell line SK-N-MC): 1780 nM
- IC50 ([1]; Homo sapiens, SK-N-SH, read-out: IC50 in cell proliferation assay, cell line SK-N-SH (ALK p.F1174L)): 2140 nM
- IC50 ([1]; Homo sapiens, SNU-5, read-out: IC50 in cell proliferation assay, cell line SNU-5 (MET amplification)): > 10000 nM
- IC50 ([1]; Homo sapiens, SNU-16, read-out: IC50 in cell proliferation assay, cell line SNU-16 (FGFR2 amplification)): > 10000 nM
- IC50 ([1]; Homo sapiens, SNU-C2B, read-out: IC50 in cell proliferation assay, cell line SNU-C2B (EGFR p.R165Q)): > 10000 nM
- IC50 ([1]; Homo sapiens, SU-DHL-1, read-out: IC50 in cell proliferation assay, cell line SU-DHL-1 (NPM1-ALK)): > 10000 nM
- IC50 ([1]; Homo sapiens, SU-DHL-6, read-out: IC50 in cell proliferation assay, cell line SU-DHL-6): 2610 nM
- IC50 ([1]; Homo sapiens, SUP-T1, read-out: IC50 in cell proliferation assay, cell line SUP-T1): > 10000 nM
- IC50 ([1]; Homo sapiens, SW48, read-out: IC50 in cell proliferation assay, cell line SW48 (EGFR p.G719S)): 3010 nM
- IC50 ([1]; Homo sapiens, SW480, read-out: IC50 in cell proliferation assay, cell line SW480): 2990 nM
- IC50 ([1]; Homo sapiens, SW626, read-out: IC50 in cell proliferation assay, cell line SW626): > 10000 nM
- IC50 ([1]; Homo sapiens, SW780, read-out: IC50 in cell proliferation assay, cell line SW780 (FGFR3-BAIAP2L1)): > 10000 nM
- IC50 ([1]; Homo sapiens, SW837, read-out: IC50 in cell proliferation assay, cell line SW837): > 10000 nM
- IC50 ([1]; Homo sapiens, SW872, read-out: IC50 in cell proliferation assay, cell line SW872 (BRAF p.V600E)): 25 nM
- IC50 ([1]; Homo sapiens, SW900, read-out: IC50 in cell proliferation assay, cell line SW900): 1120 nM
- IC50 ([1]; Homo sapiens, SW948, read-out: IC50 in cell proliferation assay, cell line SW948): 2720 nM
- IC50 ([1]; Homo sapiens, SW982, read-out: IC50 in cell proliferation assay, cell line SW982 (BRAF p.V600E)): 1160 nM
- IC50 ([1]; Homo sapiens, SW-620, read-out: IC50 in cell proliferation assay, cell line SW620): > 10000 nM
- IC50 ([1]; Homo sapiens, T98G, read-out: IC50 in cell proliferation assay, cell line T98G): > 10000 nM
- IC50 ([1]; Homo sapiens, TCC-SUP, read-out: IC50 in cell proliferation assay, cell line TCCSUP): 2080 nM
- IC50 ([1]; Homo sapiens, THP-1, read-out: IC50 in cell proliferation assay, cell line THP-1): > 10000 nM
- IC50 ([1]; Homo sapiens, U2OS, read-out: IC50 in cell proliferation assay, cell line U2OS): > 10000 nM
- IC50 ([1]; Homo sapiens, U-87 MG, read-out: IC50 in cell proliferation assay, cell line U-87MG ATCC): 3600 nM
- IC50 ([1]; Homo sapiens, U-118-MG, read-out: IC50 in cell proliferation assay, cell line U-118MG): 2210 nM
- IC50 ([1]; Homo sapiens, UMUC3, read-out: IC50 in cell proliferation assay, cell line UM-UC-3): 1950 nM
- IC50 ([1]; Hs766T, read-out: IC50 in cell proliferation assay, Hs 766T cell line): > 10000 nM
- IC50 ([1]; L-82, read-out: IC50 in cell proliferation assay, L-82 cell line (NPM1-ALK)): > 10000 nM
- IC50 ([1]; Rh30, read-out: IC50 in cell proliferation assay, cell line Rh30): > 10000 nM
- IC50 ([1]; read-out: IC50 in cell proliferation assay, 11-18 cell line (EGFR p.L858R)): > 10000 nM
- IC50 ([1]; read-out: IC50 in cell proliferation assay, Hs 852.T cell line): 1420 nM
- IC50 ([1]; read-out: IC50 in cell proliferation assay, JAR cell line): 1530 nM
- IC50 ([1]; read-out: IC50 in cell proliferation assay, cell line 5637): 562 nM
- IC50 ([1]; read-out: IC50 in cell proliferation assay, cell line A-388): > 10000 nM
- IC50 ([1]; read-out: IC50 in cell proliferation assay, cell line DB): 1720 nM
- IC50 ([1]; read-out: IC50 in cell proliferation assay, cell line DEL (NPM1-ALK)): > 10000 nM
- IC50 ([1]; read-out: IC50 in cell proliferation assay, cell line ES-2 (BRAF p.V600E)): 130 nM
- IC50 ([1]; read-out: IC50 in cell proliferation assay, cell line PA-1): 1710 nM
- IC50 ([1]; read-out: IC50 in cell proliferation assay, cell line PC-3): > 10000 nM
- IC50 ([1]; read-out: IC50 in cell proliferation assay, cell line RD): 1790 nM
- IC50 ([1]; read-out: IC50 in cell proliferation assay, cell line RKO (BRAF p.V600E)): 11 nM
- IC50 ([1]; read-out: IC50 in cell proliferation assay, cell line RL): > 10000 nM
- IC50 ([1]; read-out: IC50 in cell proliferation assay, cell line RT-4 (FGFR3-TACC3)): > 10000 nM
- IC50 ([1]; read-out: IC50 in cell proliferation assay, cell line SR (NPM1-ALK)): 1760 nM
- IC50 ([1]; read-out: IC50 in cell proliferation assay, cell line T24): 1170 nM
- IC50 ([1]; read-out: IC50 in cell proliferation assay, cell line TT (RET p.C634W)): > 10000 nM
- IC50 ([1]; read-out: IC50 in cell proliferation assay, cell line VA-ES-BJ): 2100 nM
- IC50 [2]: 2520 nM
